Reference: paper PMC4309170, “The dipeptidyl peptidase IV inhibitors vildagliptin and K-579 inhibit a phospholipase C: a case of promiscuous scaffolds in proteins” (F1000Research, 2015)

Target: phosphoinositide-specific phospholipase C (PI-PLC) (Bacillus cereus, UniProt P14262)
Experiment: PI-PLC-induced liposome (LUV) aggregation assay, turbidity at […] nm, dose-response
Format: biochemical

Chain of phosphoinositide-specific phospholipase C (PI-PLC) (P14262 32-329 limits assumed): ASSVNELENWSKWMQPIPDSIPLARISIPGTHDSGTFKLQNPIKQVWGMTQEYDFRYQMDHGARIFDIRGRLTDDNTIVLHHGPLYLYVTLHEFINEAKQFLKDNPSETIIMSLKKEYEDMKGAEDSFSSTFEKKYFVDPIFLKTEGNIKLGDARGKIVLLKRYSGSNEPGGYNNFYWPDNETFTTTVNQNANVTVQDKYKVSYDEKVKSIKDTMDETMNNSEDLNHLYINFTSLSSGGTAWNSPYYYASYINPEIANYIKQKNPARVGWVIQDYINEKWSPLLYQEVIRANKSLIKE

SMILES: N#C[C@@H]1CCCN1C(=O)CNC12CC3CC(CC(O)(C3)C1)C2 [LAF-237, 1-[[(3-hydroxy-1-adamantyl)amino]acetyl]-2-cyano-(S)-pyrrolidine]
- IC50: 100 µM
